Experimental data as given in patent US20240287138A1, “CYCLIC PEPTIDES FOR INHIBITING TNF RECEPTOR 1 ACTIVITY” (Merck Sharp & Dohme LLC, priority 2023, published 2024).
Where two headings read alike, the source gives them in different places. Numbered stars: 1 amine (or outer) side, 2 acyl side, 3 side chain; on linkers, the order of the positions; unused ones are H or OH. Bridge positions count the residues as written; N and C are the ends. Square brackets hold non-standard residues; d marks the D form. Peptide text beside a SMILES is read from it. * marks the point of attachment. Trp(βS-Me,7-OMe) = COc1cccc2c([C@H](C)[C@H](N)C(=O)O)c[nH]c12; Trp(1-CH2COOH) = N[C@@H](Cc1cn(CC(=O)O)c2ccccc12)C(=O)O; X17 = Cc1[nH]c2ccccc2c1[C@H](C)[C@H](N[*:1])C(=O)[*:2]; X32 = NC(=O)c1ccc([C@@H](O)C(N[*:1])C(=O)[*:2])cc1; Trp(7-CN) = N#Cc1cccc2c(C[C@H](N)C(=O)O)c[nH]c12; Trp(7-Cl) = N[C@@H](Cc1c[nH]c2c(Cl)cccc12)C(=O)O; Phe(4-CONH2) = NC(=O)c1ccc(C[C@H](N)C(=O)O)cc1; Phe(4-COOH) = N[C@@H](Cc1ccc(C(=O)O)cc1)C(=O)O; dPro(4S-NH2) = N[C@@H]1CN[C@@H](C(=O)O)C1; Pip(5R-OH) = O=C(O)[C@@H]1CC[C@@H](O)CN1; X1 = O=C([C@@H]1CC[C@H](N[*:1])C1)[*:2]; X14 = CC(C)CCC[C@H](N[*:1])C(=O)[*:2]; Pip(4-aza) = O=C(O)[C@@H]1CNCCN1; 4Pal = N[C@@H](Cc1ccncc1)C(=O)O; NMeE = CN[C@@H](CCC(=O)O)C(=O)O; αMeS = C[C@](N)(CO)C(=O)O; Carboxymethyl = O=C(O)C*; Nle = CCCC[C@H](N)C(=O)O; Sar = CNCC(=O)O

Columns and labels:
human TNFR2 ECD protein = biological target: T1, human TNFR2 ECD protein (Homo sapiens, UniProt P20333); assay: SPR off-target binding (selectivity) to human TNFR2 ECD
T1 construct: HRV 3C protease cleavage site (C); 6His (C, cleaved yes); made in house; host or cells: Sf21 insect cells (baculovirus), secreted
T1 sequence (P20333 23-257): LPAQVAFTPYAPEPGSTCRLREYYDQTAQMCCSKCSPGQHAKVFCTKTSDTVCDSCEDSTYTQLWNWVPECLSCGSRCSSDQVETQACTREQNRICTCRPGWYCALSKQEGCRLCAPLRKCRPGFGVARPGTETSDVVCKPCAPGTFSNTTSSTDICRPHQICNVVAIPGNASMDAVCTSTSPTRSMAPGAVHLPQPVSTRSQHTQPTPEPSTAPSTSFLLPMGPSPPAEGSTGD
Method: (§1) B. Procedure for Binding Affinity and Selectivity measured by SPR
(§2) Affinity and selectivity for hTNFR1 and TNFR2 was determined using SPR. Human TNFR1 or TNFR2 genes (extracellular domain only) were synthesized with a C-terminal Avi-tag, HRV 3C protease cleavage site followed by a 6His-tag for affinity purification. The final gene product was cloned into pBAC™-1 vector (Millipore Sigma) for expression testing in insect cells. Constructs were transfected into Sf21 cells for baculovirus generation followed by protein expression analysis in Sf21 and Tni cell lines. Large scale expression in Sf21 cells was performed using baculovirus infected insect cells (BIICs) infected at a MOI=2.0 grown for 72 h. Target proteins secreted into the media were harvested via centrifugation and concentrated using diafiltration. TNFR was purified by immobilized metal ion affinity chromatography (IMAC) using a Ni-Sepharose HisTrap™ column (Cytiva™). Isolated TNFR had His tag removed using HRV 3C protease followed by additional purification using Ni-NTA chromatography. Biotinylation was performed on Ni-NTA flow-through fractions concentrated to 45 μM and treated with BirA ligase (1:100, μg/μg ratio) in 50 mM Tris pH 7.5, 150 mM NaCl, 50 μM biotin, 10 mM magnesium acetate, 10 mM ATP at 4° C. for 20 h. Final purification of biotin-TNFR and buffer exchange into 20 mM HEPES pH 7.5, 150 mM NaCl was performed using a HiLoad® Superdex® 200 26/60 column (Cytiva™). Highly purified protein was aliquoted and stored at −80° C.
(§3) The SPR assay uses a Cytiva™ 8K or 8K+ biosensor instrument to measure the kinetics of peptide analytes binding to captured human TNFR1 extracellular domain (ECD) protein; peptide analytes are also evaluated for any off-target binding to human TNFR2 ECD protein in parallel. Recombinant human TNFR1 ECD and human TNFR2 ECD proteins, biotinylated via engineered C-terminal avi-tags, are immobilized to a regenerable streptavidin biosensor chip surface (Cytiva™ Biotin CAPture kit, Series S; cat. #28920234). Peptide analytes binding to immobilized human TNFR1 ECD protein and their subsequent dissociation are conducted in a buffer of 10 mM HEPES pH 7.4, 150 mM NaCl, 3 mM EDTA, 0.05% P20,2% DMSO under laminar flow conditions and measured in response units (RU), which are directly proportional to the accumulated mass on the surface of the biosensor chip; the biosensor chip surface is regenerated via Cytiva™ proprietary methods between the evaluation of each peptide analyte. […] The SPR assay determines the association and dissociation rate constants, kon and koff, for each peptide analyte and, from these values, calculates the binding affinity, […] reported in Table 2.

[1] = biological target: T2, human TNFR1 extracellular domain (ECD) protein (Homo sapiens, UniProt P19438); assay: SPR binding affinity to captured human TNFR1 ECD
T2 construct: HRV 3C protease cleavage site (C); 6His (C, cleaved yes); made in house; host or cells: Sf21 insect cells (baculovirus), secreted
T2 sequence (P19438 30-211): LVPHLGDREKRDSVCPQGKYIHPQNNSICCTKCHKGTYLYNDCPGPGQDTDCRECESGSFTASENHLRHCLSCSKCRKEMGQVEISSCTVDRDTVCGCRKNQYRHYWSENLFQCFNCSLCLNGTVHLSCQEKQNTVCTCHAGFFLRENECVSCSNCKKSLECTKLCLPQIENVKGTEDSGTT
Method: as §1, §2, §3

[2] = biological target: T3, TNFα-induced NF-κB signal transduction pathway (TNFR1 signaling) in THP-1 cells (Homo sapiens, UniProt P19438); assay: THP-1 Lucia NF-κB reporter cell assay, inhibition of TNFα-induced NF-κB signaling; assay type: cell-based; conditions: THP-1 NF-κB Lucia reporter cells, 10 ng/mL TNFα, 16-18 h, secreted luciferase; read-out: THP-1 IC50
T3 sequence (P19438 30-455): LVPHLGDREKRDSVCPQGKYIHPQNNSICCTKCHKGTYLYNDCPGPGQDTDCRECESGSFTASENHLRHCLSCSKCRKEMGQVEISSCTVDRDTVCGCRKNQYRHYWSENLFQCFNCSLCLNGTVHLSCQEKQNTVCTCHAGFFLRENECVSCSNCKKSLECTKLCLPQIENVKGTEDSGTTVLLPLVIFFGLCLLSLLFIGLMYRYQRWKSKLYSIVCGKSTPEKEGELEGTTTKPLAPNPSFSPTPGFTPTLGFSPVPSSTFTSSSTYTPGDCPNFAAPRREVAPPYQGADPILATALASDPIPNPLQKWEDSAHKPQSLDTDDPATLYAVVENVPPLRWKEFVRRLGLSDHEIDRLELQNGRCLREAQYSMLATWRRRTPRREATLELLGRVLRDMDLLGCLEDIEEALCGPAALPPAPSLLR
Method in brief: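 Macrocyclic peptides were preincubated 1 h at 37 °C with THP-1 NF-κB-Lucia reporter cells (20,000 cells/well) in antibiotic-free RPMI 1640/10% FBS, then stimulated with 10 ng/mL human TNFα overnight (16-18 h). Secreted luciferase in supernatant was read by luminescence; IC50 from 4-parameter logistic fits.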

Row | Compound | Kd (human TNFR2 ECD protein) [nM] | Kd [1] [nM] | IC50 [2] [nM] | Kd (human TNFR2 ECD protein; biotinylated human TNFR2 ECD on streptavidin chip, read-out: SPR hTNFR2 KD) [nM] | Kd ([1]; biotinylated human TNFR1 ECD on streptavidin chip, from kon and koff, read-out: SPR hTNFR1 KD) [nM]
1 | CCCC[C@@H]1NC(=O)[C@@H]2CC[C@@H](C2)NC(=O)[C@H]([C@@H](C)c2c[nH]c3c(OC)cccc23)NC(=O)CN(C)C(=O)[C@H](Cc2ccc(O)cc2)NC(=O)[C@H](Cc2ccc(C(N)=O)cc2)NC(=O)[C@](C)(CO)NC(=O)[C@H](Cc2c[nH]c3c(Cl)cccc23)NC(=O)[C@H](Cc2ccc(OCC(=O)O)cc2)NC(=O)[C@H](CC(N)=O)NC(=O)[C@H](CCC(=O)O)N(C)C(=O)[C@H](Cc2c[nH]c3ccccc23)NC(=O)[C@@H]2CC[C@@H](O)CN2C(=O)[C@H](Cc2ccncc2)NC1=O [SEQ ID NO. 44] (cyclo([4Pal][Pip(5R-OH)]W[NMeE]NY(Carboxymethyl)[Trp(7-Cl)][αMeS][Phe(4-CONH2)]Y[Sar][Trp(βS-Me,7-OMe)][X1][Nle])) | > 1000 | 0.16 | 0.5 |  | 
2 | COc1cccc2c([C@H](C)[C@@H]3NC(=O)CN(C)C(=O)[C@H](Cc4ccc(O)cc4)NC(=O)[C@H](Cc4ccc(C(N)=O)cc4)NC(=O)[C@](C)(CO)NC(=O)[C@H](Cc4c[nH]c5c(Cl)cccc45)NC(=O)[C@H](Cc4ccc(C(=O)O)cc4)NC(=O)[C@H](CC(N)=O)NC(=O)[C@H](CCC(=O)O)N(C)C(=O)[C@H](Cc4c[nH]c5ccccc45)NC(=O)[C@@H]4CNCCN4C(=O)[C@H](Cc4ccncc4)NC(=O)[C@H](CCCC(C)C)NC(=O)CSC[C@@H](C(N)=O)NC3=O)c[nH]c12 [SEQ ID NO. 93] ({CH2CO}-[X14][4Pal][Pip(4-aza)]W[NMeE]N[Phe(4-COOH)][Trp(7-Cl)][αMeS][Phe(4-CONH2)]Y[Sar][Trp(βS-Me,7-OMe)]C-NH2; thioether N-14) | > 1000 | 0.78 | 2.7 |  | 
3 | CCCC[C@@H]1NC(=O)CSC[C@@H](C(N)=O)NC(=O)[C@H]([C@@H](C)c2c(C)[nH]c3ccccc23)NC(=O)CN(C)C(=O)[C@H](Cc2ccc(O)cc2)NC(=O)[C@H](Cc2ccc(C(N)=O)cc2)NC(=O)[C@](C)(CO)NC(=O)[C@H](Cc2c[nH]c3c(Cl)cccc23)NC(=O)[C@H](Cc2ccncc2)NC(=O)[C@H](CC(N)=O)NC(=O)[C@H](CCC(=O)O)N(C)C(=O)[C@H](Cc2c[nH]c3ccccc23)NC(=O)[C@@H]2CC[C@@H](O)CN2C(=O)[C@H](Cc2ccncc2)NC1=O [SEQ ID NO. 97] ({CH2CO}-[Nle][4Pal][Pip(5R-OH)]W[NMeE]N[4Pal][Trp(7-Cl)][αMeS][Phe(4-CONH2)]Y[Sar][X17]C-NH2; thioether N-14) | > 1000 | 0.08 | 0.9 |  | 
4 | CCCC[C@@H]1NC(=O)[C@@H]2CC[C@@H](C2)NC(=O)[C@H]([C@@H](C)c2c[nH]c3c(OC)cccc23)NC(=O)CN(C)C(=O)C([C@H](O)c2ccc(C(N)=O)cc2)NC(=O)[C@H](Cc2ccc(C(N)=O)cc2)NC(=O)[C@](C)(CO)NC(=O)[C@H](Cc2c[nH]c3c(C#N)cccc23)NC(=O)[C@H](Cc2ccc(C(=O)O)cc2)NC(=O)[C@H](CC(N)=O)NC(=O)[C@H]2C[C@H](N)CN2C(=O)[C@H](Cc2cn(CC(=O)O)c3ccccc23)NC(=O)[C@@H]2CC[C@@H](O)CN2C(=O)[C@H](Cc2ccncc2)NC1=O (stereo partly drawn) [SEQ ID NO. 87] (cyclo([4Pal][Pip(5R-OH)][Trp(1-CH2COOH)][dPro(4S-NH2)]N[Phe(4-COOH)][Trp(7-CN)][αMeS][Phe(4-CONH2)][X32][Sar][Trp(βS-Me,7-OMe)][X1][Nle])) |  |  | 0.7 | > 1000 | 0.02
